Molecules are shown by their SMILES.

For assay [1], the target named is T1, Kv1.3 (Homo sapiens, UniProt P22001). The assay is described as follows: whole-cell patch clamp of Kv1.[…] current in Jurkat lymphocytes, […] compound. To be noted: read-out: % inhibition at 1 μM. It is filed as cell-based. A general note: In patch-clamp work, channel activity is measured electrically.
Assay [2] deals with T1, Kv1.3. Description: whole-cell patch clamp, Kv1.[…] stably expressed in CHO cells. In kind it is cell-based.

T1 sequence (P22001 whole entry): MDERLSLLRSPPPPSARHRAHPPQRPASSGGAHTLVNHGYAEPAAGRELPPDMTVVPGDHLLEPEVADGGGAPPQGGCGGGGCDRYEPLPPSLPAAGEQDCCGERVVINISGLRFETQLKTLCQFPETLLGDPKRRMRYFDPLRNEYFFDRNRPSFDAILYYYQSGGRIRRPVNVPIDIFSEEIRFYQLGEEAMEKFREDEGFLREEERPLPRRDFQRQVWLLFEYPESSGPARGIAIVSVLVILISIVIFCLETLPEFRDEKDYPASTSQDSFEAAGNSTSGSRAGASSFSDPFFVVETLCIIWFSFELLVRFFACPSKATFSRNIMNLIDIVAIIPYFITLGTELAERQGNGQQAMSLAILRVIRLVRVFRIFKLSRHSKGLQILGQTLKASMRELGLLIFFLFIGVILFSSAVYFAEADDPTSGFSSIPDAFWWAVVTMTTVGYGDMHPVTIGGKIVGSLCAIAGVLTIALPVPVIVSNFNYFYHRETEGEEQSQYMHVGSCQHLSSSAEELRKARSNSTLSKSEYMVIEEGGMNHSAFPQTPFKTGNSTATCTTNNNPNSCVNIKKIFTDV

The term inhibition denotes the percentage by which the read-out fell short of the control. For `CCCCCOc1ccc(OCCOCCOCCOCCOCCOCCOC)cc1` [POP-MHEG, 19-(4-(pentyloxy)phenoxy)-2,5,8,11,14,17-hexaoxanonadecane], the inhibition at 1 µM on Kv1.3 [1] was around 70%.

Usually EC50 stands for the midpoint of the concentration-response curve. Low values mean higher potency in that assay, high ones lower potency in that assay. `COCCOCCOCCOCCOCCOCCOc1ccc(OCCCCOc2c3ccoc3cc3oc(=O)ccc23)cc1` [PAP-1-MHEG, 4-(4-(4-(2,5,8,11,14,17-hexaoxanonadecan-19-yloxy)phenoxy)butoxy)-7H-furo[3,2-g]chromen-7-one]: it took 350 ± 30 nM to reach a half-maximal effect at Kv1.3 [2] (EC50).
